Results published in PubChem BioAssay (NCI).
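Dose response: 5 concentrations. Exposure: 48 h. Format: 96-well plates. Endpoint: linear interpolation; highest concentration if not reached. Here, GI50 denotes the concentration required for 50% inhibition of growth. TGI: concentration producing complete growth inhibition.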

Assays:
Test in all cases: inhibition of tumour cell growth, NCI panel, 48 h
[1] = test system: MOLT-4 leukemia
[2] = test system: OVCAR-4 ovarian
[3] = test system: ACHN renal
[4] = test system: HOP-92 NSCLC
[5] = test system: SNB-19 CNS
[6] = test system: K-562 leukemia
[7] = test system: U251 CNS
[8] = test system: RXF 393 renal
[9] = test system: MCF7 breast
[10] = test system: NCI-H23 lung
[11] = test system: HT29 colon
[12] = test system: KM12 colon
[13] = test system: M14 melanoma
[14] = test system: COLO 205 colon
[15] = test system: A549 NSCLC
[16] = test system: SF-268 CNS
[17] = test system: NCI-H460 lung
[18] = test system: EKVX NSCLC
[19] = test system: DU-145 prostate
[20] = test system: OVCAR-3 ovarian
[21] = test system: 786-0 renal
[22] = test system: RPMI-8226 leukemia
[23] = test system: SF-539 CNS
[24] = test system: MALME-3M melanoma
[25] = test system: SF-295 CNS
[26] = test system: SW-620 colon
[27] = test system: CAKI-1 renal
[28] = test system: UO-31 renal
[29] = test system: SR leukemia
[30] = test system: SK-MEL-2 melanoma
[31] = test system: HL-60(TB) leukemia
[32] = test system: HCC-2998 colon
[33] = test system: OVCAR-5 ovarian
[34] = test system: A498 renal
[35] = test system: CCRF-CEM leukemia
[36] = test system: T-47D breast
[37] = test system: HS 578T breast
[38] = test system: LOX IMVI melanoma
[39] = test system: UACC-62 melanoma
[40] = test system: TK-10 renal
[41] = test system: SN12C renal
[42] = test system: MDA-MB-231 breast
[43] = test system: PC-3 prostate
[44] = test system: SK-MEL-5 melanoma
[45] = test system: BT-549 breast
[46] = test system: MDA-MB-435
[47] = test system: UACC-257 melanoma
[48] = test system: NCI/ADR-RES ovarian
[49] = test system: HOP-62 NSCLC
[50] = test system: NCI-H226 lung
[51] = test system: IGROV1 ovarian
[52] = test system: SNB-75 CNS
[53] = test system: HCT-116 colon
[54] = test system: HCT-15 colon
[55] = test system: SK-OV-3 ovarian
[56] = test system: OVCAR-8 ovarian
[57] = test system: SK-MEL-28 melanoma
[58] = test system: NCI-H522 lung

CC(=O)N1CCC(Nc2cc(C(=O)NC[C@H](O)CN3CCc4ccccc4C3)ncn2)CC1
GI50 [1]: > 100 µM | TGI [1]: > 100 µM | GI50 [2]: > 100 µM | TGI [2]: > 100 µM | GI50 [3]: > 100 µM | TGI [3]: > 100 µM | GI50 [4]: 91.9 µM | TGI [4]: > 100 µM | GI50 [5]: > 100 µM | TGI [5]: > 100 µM | GI50 [6]: > 100 µM | TGI [6]: > 100 µM | GI50 [7]: > 100 µM | TGI [7]: > 100 µM | GI50 [8]: > 100 µM | TGI [8]: > 100 µM | GI50 [9]: > 100 µM | TGI [9]: > 100 µM | GI50 [10]: > 100 µM | TGI [10]: > 100 µM | GI50 [11]: > 100 µM | TGI [11]: > 100 µM | GI50 [12]: > 100 µM | TGI [12]: > 100 µM | GI50 [13]: > 100 µM | TGI [13]: > 100 µM | GI50 [14]: > 100 µM | TGI [14]: > 100 µM | GI50 [15]: > 100 µM | TGI [15]: > 100 µM | GI50 [16]: > 100 µM | TGI [16]: > 100 µM | GI50 [17]: > 100 µM | TGI [17]: > 100 µM | GI50 [18]: > 100 µM | TGI [18]: > 100 µM | GI50 [19]: > 100 µM | TGI [19]: > 100 µM | GI50 [20]: > 100 µM | TGI [20]: > 100 µM | GI50 [21]: > 100 µM | TGI [21]: > 100 µM | GI50 [22]: > 100 µM | TGI [22]: > 100 µM | GI50 [23]: > 100 µM | TGI [23]: > 100 µM | GI50 [24]: > 100 µM | TGI [24]: > 100 µM | GI50 [25]: > 100 µM | TGI [25]: > 100 µM | GI50 [26]: > 100 µM | TGI [26]: > 100 µM | GI50 [27]: > 100 µM | TGI [27]: > 100 µM | GI50 [28]: > 100 µM | TGI [28]: > 100 µM | GI50 [29]: > 100 µM | TGI [29]: > 100 µM | GI50 [30]: > 100 µM | TGI [30]: > 100 µM | GI50 [31]: > 100 µM | TGI [31]: > 100 µM | GI50 [32]: > 100 µM | TGI [32]: > 100 µM | GI50 [33]: > 100 µM | TGI [33]: > 100 µM | GI50 [34]: > 100 µM | TGI [34]: > 100 µM | GI50 [35]: > 100 µM | TGI [35]: > 100 µM | GI50 [36]: > 100 µM | TGI [36]: > 100 µM | GI50 [37]: > 100 µM | TGI [37]: > 100 µM | GI50 [38]: > 100 µM | TGI [38]: > 100 µM | GI50 [39]: > 100 µM | TGI [39]: > 100 µM | GI50 [40]: > 100 µM | TGI [40]: > 100 µM | GI50 [41]: > 100 µM | TGI [41]: > 100 µM | GI50 [42]: > 100 µM | TGI [42]: > 100 µM | GI50 [43]: > 100 µM | TGI [43]: > 100 µM | GI50 [44]: > 100 µM | TGI [44]: > 100 µM | GI50 [45]: > 100 µM | TGI [45]: > 100 µM | GI50 [46]: > 100 µM | TGI [46]: > 100 µM | GI50 [47]: > 100 µM | TGI [47]: > 100 µM | GI50 [48]: > 100 µM | TGI [48]: > 100 µM | GI50 [49]: > 100 µM | TGI [49]: > 100 µM | GI50 [50]: > 100 µM | TGI [50]: > 100 µM | GI50 [51]: > 100 µM | TGI [51]: > 100 µM | GI50 [52]: > 100 µM | TGI [52]: > 100 µM | GI50 [53]: > 100 µM | TGI [53]: > 100 µM | GI50 [54]: > 100 µM | TGI [54]: > 100 µM | GI50 [55]: > 100 µM | TGI [55]: > 100 µM | GI50 [56]: > 100 µM | TGI [56]: > 100 µM | GI50 [57]: > 100 µM | TGI [57]: > 100 µM | GI50 [58]: > 100 µM | TGI [58]: > 100 µM
